In patent US9527807B2, “Sulfonamide derivative and use thereof” (Takeda Pharmaceutical Company Limited, priority 2011, dated 2016):

Target: T1, AMPA receptor (human GluR1 flip/stargazin expressed in CHO-K1 cells) (Homo sapiens, UniProt P42261)
T1 construct: expressed in transfected cells; host or cells: CHO-K1
Experiment: AMPA receptor function enhancing activity using calcium influx as index
Assay type: cell-based
Conditions: change in fluorescence level in 3 min, 100% = 3 mM glutamic acid + 300 μM cyclothiazide, 0% = 3 mM glutamic acid only
Text: Human GluR1 flip cDNA was amplified by PCR using forward primer […] (SEQ ID NO: 1) and reverse primer […] (SEQ ID NO: 2) artificially synthesized using human brain-derived cDNA (BD Bio science) as a template. The amplified product was digested with restriction enzymes EcoRI, NotI (TAKARA SHUZO CO. LTD.), and incorporated into the same site of pcDNA3.1(+) (Invitrogen) to construct pcDNA3.1(+)/human GluR1 flip gene. Human stargazin cDNA was amplified by PCR using forward primer […] (SEQ ID NO: 3) and reverse primer. […] (SEQ ID NO: 4) artificially synthesized using human hippocampus cDNA as a template. The amplified product was digested with restriction enzymes XhoI, BamHI (TAKARA SHUZO CO. LTD.), and incorporated into the same site of pcDNA3.1(−) (Invitrogen) to construct pcDNA3.1 Zeo(−)/human stargazin gene.
(2) Construction of GluR1 Flip/Stargazin Expressing Cell
CHO-K1 cells passaged in a culture medium (Ham's F12 medium (Invitrogen) added with 10% inactivated fetal bovine serum (Morgate) and penicillin, streptomycin (Invitrogen)) were detached with 0.05% trypsin, 0.53 mM EDTA (Invitrogen) diluted with D-PBS(−). The detached cells were suspended in a culture medium, and recovered by a centrifugation operation at 1,000 rpm. The recovered cells were suspended again in D-PBS(−), and added to a 0.4 cm electroporation cuvette (BioRad). pcDNA3.1(+)/human GluR1 flip gene (5 μg) and pcDNA3.1 Zeo(−)/human stargazin gene (15 μg) were added, and the mixture was introduced into CHO-K1 cells using Gene Pulser II (BioRad) under the conditions of 950 μFd, […]. The introduced cells were cultured overnight in a culture medium and, the next day, plated in a 96 well plate at 250 cells/well using a selection medium (culture medium added with Zeocin (Invitrogen) to 250 μg/mL). Clones showing drug resistance were selected, and GluR1 flip/stargazin expressing clones were selected by an assay method using calcium influx as an index as shown below.
(3) Measurement Method of AMPA Receptor Function Enhancing Activity of Compound Using Calcium Influx as Index
CHO-K1/GluR1 flip/stargazin expressing cells were plated on a 384 well black transparent bottom plate (FMAT4307723) at 0.5×10^4 cells/well, and cultured in a 37° C., CO2 incubator (SANYO Electric Co., Ltd.) for 2 days. The medium in the cell plate was removed, and a calcium indicator (Calcium 4 Assay Kit, Molecular. Devices) containing 1.25 mM probenecid (Invitrogen) was added at 25 μL/well and the well was left standing in 37° C., CO2 incubator for 1 hr. The cell plate was set in FLITRtetra (Molecular Devices), a mixture (12.5 μL) of 9 mM glutamic acid diluted with assay buffer B (HBSS (Invitrogen), 0.1% BSA, 10 mM HEPES) and a test compound was added, and the amount of change in fluorescence level in 3 min was measured. In the definition here, the amount of change in fluorescence level of well added with glutamic acid at final concentration 3 mM and 300 μM cyclothiazide (TOCRIS) is 100%, the amount of change in fluorescence level of well added only with glutamic acid at final concentration 3 mM is 0%, and the compound activity was calculated according to the following formula. activity (%)=(X−C)/(T−C)×100 T: amount of change in fluorescence level of well added with glutamic acid at final concentration 3 mM and 300 μM cyclothiazide C: amount of change in fluorescence level of well added only with glutamic acid at final concentration 3 mM X: amount of change in fluorescence level of well added with to test compound

T1 sequence (P42261 19-906 isoform P42261-2 limits assumed): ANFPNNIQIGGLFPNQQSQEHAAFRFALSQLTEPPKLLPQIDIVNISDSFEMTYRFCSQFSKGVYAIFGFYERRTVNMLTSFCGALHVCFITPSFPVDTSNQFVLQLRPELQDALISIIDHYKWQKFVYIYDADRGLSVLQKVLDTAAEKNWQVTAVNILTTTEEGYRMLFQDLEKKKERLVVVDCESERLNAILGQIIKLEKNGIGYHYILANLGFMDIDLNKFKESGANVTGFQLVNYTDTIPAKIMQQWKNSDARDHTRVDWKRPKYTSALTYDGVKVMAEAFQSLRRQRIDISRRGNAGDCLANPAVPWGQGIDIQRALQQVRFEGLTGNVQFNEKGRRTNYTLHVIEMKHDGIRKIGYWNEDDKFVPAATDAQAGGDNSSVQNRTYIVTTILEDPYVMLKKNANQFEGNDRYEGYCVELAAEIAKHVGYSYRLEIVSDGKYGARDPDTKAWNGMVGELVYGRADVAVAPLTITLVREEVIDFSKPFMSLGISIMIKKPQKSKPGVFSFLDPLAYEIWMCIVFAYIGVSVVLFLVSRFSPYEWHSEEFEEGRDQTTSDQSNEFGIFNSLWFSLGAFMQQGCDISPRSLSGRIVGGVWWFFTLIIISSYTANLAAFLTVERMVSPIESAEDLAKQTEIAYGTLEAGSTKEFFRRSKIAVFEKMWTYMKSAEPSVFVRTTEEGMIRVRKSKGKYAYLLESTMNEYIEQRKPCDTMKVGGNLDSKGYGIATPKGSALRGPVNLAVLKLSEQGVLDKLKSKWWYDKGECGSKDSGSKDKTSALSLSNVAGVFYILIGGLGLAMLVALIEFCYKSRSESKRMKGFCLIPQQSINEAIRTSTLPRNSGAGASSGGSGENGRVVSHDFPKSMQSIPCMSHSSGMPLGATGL
T1 sequence (Q9Y698 whole entry partner): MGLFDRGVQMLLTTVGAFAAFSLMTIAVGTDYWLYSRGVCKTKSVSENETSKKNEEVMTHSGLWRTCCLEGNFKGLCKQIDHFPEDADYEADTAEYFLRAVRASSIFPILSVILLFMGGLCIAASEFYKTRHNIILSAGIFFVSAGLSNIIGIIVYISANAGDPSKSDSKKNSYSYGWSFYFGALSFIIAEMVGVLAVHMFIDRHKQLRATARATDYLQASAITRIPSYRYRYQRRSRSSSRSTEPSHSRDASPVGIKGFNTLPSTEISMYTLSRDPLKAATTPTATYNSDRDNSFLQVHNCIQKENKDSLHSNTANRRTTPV

SMILES	activity (%)
CCS(=O)(=O)N[C@H]1CCC(=O)C[C@@H]1COc1ccc(C(C)C)cc1 (relative stereo) [Example 39, trans-N-[2-{[4-(1-methylethyl)phenoxy]methyl}-4-oxocyclohexyl]ethanesulfonamide]	81
CS(=O)(=O)N[C@H]1C[C@H]2CC[C@H](O2)[C@@H]1COc1ccc(-c2ccc(C#N)cn2)cc1 (mixture of isomers) [Example 508, N-((1S,2SR,3SR,5R)-2-((4-(5-cyanopyridin-2-yl)phenoxy)methyl)-8-oxabicyclo[3.2.1]oct-3-yl)methanesulfonamide]	38
CCS(=O)(=O)N[C@H]1CCSC[C@@H]1COc1ccc(-n2cc(C#N)cn2)cc1 [Example 522, N-((3S,4S)-3-((4-(4-cyano-1H-pyrazol-1-yl)phenoxy)methyl)tetrahydro-2H-thiopyran-4-yl)ethanesulfonamide]	95
CCS(=O)(=O)N[C@H]1CCCC[C@@H]1COc1ccc(C2COC2)cc1 (relative stereo) [Example 43, trans-N-{2-[(4-oxetan-3-ylphenoxy)methyl]cyclohexyl}ethanesulfonamide]	86
CCS(=O)(=O)N[C@H]1COCC[C@@H]1COc1ccc(-c2ccc(Cl)cn2)cc1 [Example 209, N-[(3R,4S)-4-{[4-(5-chloropyridin-2-yl)phenoxy]methyl}tetrahydro-2H-pyran-3-yl]ethanesulfonamide]	85
CCS(=O)(=O)N[C@H]1CCOC[C@@H]1COc1ccc(-n2cnc(C)c2)cc1 (relative stereo) [Example 139, trans-N-[3-{[4-(4-methyl-1H-imidazol-1-yl)phenoxy]methyl}tetrahydro-2H-pyran-4-yl]ethanesulfonamide]	97
CCS(=O)(=O)N[C@H]1CCC[C@@H]1COc1ccc(C(C)C)cc1 (relative stereo) [Example 15, trans-N-[2-{[4-(1-methylethyl)phenoxy]methyl}cyclopentyl]ethanesulfonamide]	88
CS(=O)(=O)N[C@H]1CCOC[C@@H]1COc1ccc(-n2cc(C(F)(F)F)cn2)cc1 [Example 265, N-[(3R,4S)-3-({4-[4-(trifluoromethyl)-1H-pyrazol-1-yl]phenoxy}methyl)tetrahydro-2H-pyran-4-yl]methanesulfonamide]	78
CS(=O)(=O)N[C@H]1COCC[C@@H]1COc1ccc(-c2ncc(Cl)cn2)cc1 [Example 284, N-[(3R,4S)-4-{[4-(5-chloropyrimidin-2-yl)phenoxy]methyl}tetrahydro-2H-pyran-3-yl]methanesulfonamide]	92
O=S(=O)(N[C@H]1CCOC[C@@H]1COc1ccc(-c2ncc(F)cc2F)cc1)C1CC1 (racemic) [Example 362, N-[(3RS,4SR)-3-{[4-(3,5-difluoropyridin-2-yl)phenoxy]methyl}tetrahydro-2H-pyran-4-yl]cyclopropanesulfonamide]	96
CS(=O)(=O)N[C@H]1COCC[C@@H]1COc1ccc(-n2cc(Cl)cn2)cc1 [Example 206, N-[(3R,4S)-4-{[4-(4-chloro-1H-pyrazol-1-yl)phenoxy]methyl}tetrahydro-2H-pyran-3-yl]methanesulfonamide]	74
O=S(=O)(N[C@H]1CCCO[C@@H]1COc1ccc(-c2ccc(F)cn2)cc1)C1CC1 [Example 282, 1,5-anhydro-4-[(cyclopropylsulfonyl)amino]-2,3,4-trideoxy-6-β-[4-(5-fluoropyridin-2-yl)phenyl]-D-erythro-hexitol]	96
CCS(=O)(=O)N[C@H]1CCOC[C@@H]1COc1ccc(-n2cc(Cl)cn2)cc1F [Example 454, N-[(3R,4S)-3-{[4-(4-chloro-1H-pyrazol-1-yl)-2-fluorophenoxy]methyl}tetrahydro-2H-pyran-4-yl]ethanesulfonamide]	89
Cn1cccc(-c2ccc(OC[C@H]3CSCC[C@@H]3NS(C)(=O)=O)cc2)c1=O [Example 518, N-((3S,4S)-3-((4-(1-methyl-2-oxo-1,2-dihydropyridin-3-yl)phenoxy)methyl)tetrahydro-2H-thiopyran-4-yl)methanesulfonamide]	95
CCS(=O)(=O)N[C@H]1CCC(F)(F)C[C@@H]1COc1ccc(-c2ncc(C#N)cc2F)cc1 [Example 222, N-[(1S,2S)-2-{[4-(5-cyano-3-fluoropyridin-2-yl)phenoxy]methyl}-4,4-difluorocyclohexyl]ethanesulfonamide]	89
CCS(=O)(=O)N[C@H]1CCN(C(C)=O)C[C@@H]1COc1ccc(OC(F)F)cc1 (relative stereo) [Example 1, trans-N-[1-acetyl-3-{[4-(difluoromethoxy)phenoxy]methyl}piperidin-4-yl]ethanesulfonamide]	46
CCS(=O)(=O)N[C@H]1CCOC[C@@H]1COc1ccc(C(C)=O)cc1 (relative stereo) [Example 135, trans-N-{3-[(4-acetylphenoxy)methyl]tetrahydro-2H-pyran-4-yl}ethanesulfonamide]	88
Cc1cnn(-c2ccc(OC[C@H]3COCC[C@@H]3NS(=O)(=O)C(F)(F)F)cc2)c1 (racemic) [Example 280, 1,1,1-trifluoro-N-[(3RS,4SR)-3-{[4-(4-methyl-1H-pyrazol-1-yl)phenoxy]methyl}tetrahydro-2H-pyran-4-yl]methanesulfonamide]	108
CS(=O)(=O)N[C@H]1CCCO[C@@H]1COc1ccc(-c2ccc(C#N)cn2)cc1 (racemic) [Example 164, 1,5-anhydro-6-O-[4-(5-cyanopyridin-2-yl)phenyl]-2,3,4-trideoxy-4-[(methylsulfonyl)amino]-DL-erythro-hexitol]	76
CCS(=O)(=O)N[C@H]1CCC(F)(F)C[C@@H]1COc1ccc(-c2cccn(C)c2=O)cc1 [Example 267, N-[(1S,2S)-4,4-difluoro-2-{[4-(1-methyl-2-oxo-1,2-dihydropyridin-3-yl)phenoxy]methyl}cyclohexyl]ethanesulfonamide]	93
CS(=O)(=O)N[C@H]1CCC(F)(F)C[C@@H]1COc1ccc(-c2ncc(C#N)cc2F)cc1 [Example 215, N-[(1S,2S)-2-{[4-(5-cyano-3-fluoropyridin-2-yl)phenoxy]methyl}-4,4-difluorocyclohexyl]methanesulfonamide]	101
CC(C)S(=O)(=O)N[C@H]1CCCC[C@@H]1COc1ccc(C2CC2)cc1 (relative stereo) [Example 21, trans-N-{2-[(4-cyclopropylphenoxy)methyl]cyclohexyl}propane-2-sulfonamide]	82
O=S(=O)(N[C@H]1COCC[C@@H]1COc1ccc(-c2ccc(F)cn2)cc1F)C1CC1 [Example 264, N-[(3R,4S)-4-{[2-fluoro-4-(5-fluoropyridin-2-yl)phenoxy]methyl}tetrahydro-2H-pyran-3-yl]cyclopropanesulfonamide]	104
CCS(=O)(=O)N[C@@H]1CCCC[C@H]1COc1ccc(CCC#N)cc1 (relative stereo) [Example 50, trans-N-[2-{[4-(2-cyanoethyl)phenoxy]methyl}cyclohexyl] ethanesulfonamide]	78
CCS(=O)(=O)N[C@H]1CCOC[C@@H]1COc1ccc(C(C)=O)cc1F (relative stereo) [Example 136, trans-N-{3-[(4-acetyl-2-fluorophenoxy)methyl]tetrahydro-2H-pyran-4-yl}ethanesulfonamide]	85
